Source: publication PMC4482410, “A Peptide Mimetic of 5-Acetylneuraminic Acid-Galactose Binds with High Avidity to Siglecs and NKG2D” (PLoS ONE, 2015)
Values joined by “and” are separate entries in the source; they are usually repeats but may differ in a detail not shown here. Equal entries are not always repeated. Bridges are numbered along the chain shown (N, C = ends). Roman numbers before positions name the chains, in order. Where no end group is shown, it is not given here.

Assays:
NKG2D [1] = biological target: T1, NKG2D (Homo sapiens, UniProt P26718); assay: inhibition of binding of svH1C to NKG2D; conditions: estimated from fetuin inhibition (Fig 4); read-out: binding constant of svH1C to NKG2D estimated by inhibition of binding by fetuin
T1 construct: the extracellular lectin-type domain was fused at the N-terminus with a human IgG1 Fc domain; purchased R&D Systems, Inc., Minneapolis, MN
T1 sequence (P26718 73-216 limits assumed): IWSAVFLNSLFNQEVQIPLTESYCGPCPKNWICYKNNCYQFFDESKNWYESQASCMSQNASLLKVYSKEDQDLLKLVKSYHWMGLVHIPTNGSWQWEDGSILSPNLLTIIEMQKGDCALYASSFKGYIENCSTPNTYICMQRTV
Protocol: (§1) Isothermal microcalorimetry was performed by TA Instruments Professional Services (New Castle, DE) by titrating 10 μM NKG2D (monomer concentration) (R&D Systems, Inc., Minneapolis, MN) with 100 μM svH1C in 50 mM Tris-HCl, pH 7.5, 150 mM NaCl, 0.1 mM EDTA. Recombinant human receptors were obtained from R&D Systems as chimeric proteins. NKG2D is a type II transmembrane protein and the extracellular lectin-type domain was fused at the N-terminus with a human IgG1 Fc domain. Recombinant siglecs contained a C-terminal IgG1 Fc domain or a His6–10 tag. The lyophilized proteins were reconstituted in phosphate-buffered saline, pH 7.2 (PBS), to 100 μg/mL. The Fc-chimeric proteins were bound to protein A/G-coated wells of microtiter plates (Pierce Biotechnology). His-tagged proteins were bound in Nickel-coated plates (Pierce Biotechnology). Sufficient proteins were added to wells to saturate the binding capacity of the wells. After a wash to remove unbound receptor, wells were blocked with 1% gelatin in wash buffer. […] Absorbance was measured at 450 nm and converted to the amount of streptavidin-peroxidase bound with the specific activity of the conjugate determined under the conditions of the assay. […]
Fig 4 Binding of svH1C to NKG2D. (A) The amount of bound peptide was measured after extensive washing with PBS containing 0.05% Tween-20. […]

NKG2D [2] = biological target: T1, NKG2D; assay: isothermal microcalorimetry; format: binding
Protocol: as §1, with “wells.” for “wells. After a wash to remove unbound receptor, wells were blocked with 1% gelatin in wash buffer.”
We then assayed binding of svH1C to NKG2D directly by isothermal microcalorimetry. svH1C (100 μM) was titrated into a solution of NKG2D (10 μM, subunit concentration) and changes in heat content of the system were measured. […]

toxicity in vivo = conditions: statement for svH1C or similar glycan mimetics; no data shown
siglecs = assay: solid-phase binding of biotinylated tetravalent peptides to siglecs; design: species or system human; conditions: biotinylated peptides 2 μM
Protocol: as §1, with “buffer. Wash buffers were either 10 mM phosphate, pH 7.2; 10 mM HEPES, pH 7.4; or 50 mM Tris-HCl, pH.7.5, each in 150 mM NaCl containing 0.05% Tween-20. Biotinylated peptides were prepared as 2 μM solutions in the wash buffer and 50 μL (100 pmoles) were added to each well and incubated at room temperature for one hour. After four washes with 350 μL buffer containing 0.05% Tween-20, each assay was incubated with 50 μL of 1 μg/mL streptavidin-peroxidase (Sigma-Aldrich, St. Louis, MO).” for “buffer.”
MAA is a mixture of M. amurensis leukoagglutinin (MAL) and M. amurensis hemagglutinin (MAH), both of which along with SNA1 bind preferentially to terminal Neu5Ac-Gal- sequences on complex glycans. Binding of the peptide to several lectins specific for monosaccharides was not detected. […]

[3] = test system: lectins that bind monosaccharides; conditions: ref [29],[30]; cited from earlier work
Text: We initially identified several sequences of amino acids that bound to specific plant lectins by screening phage display libraries. Sequences were further refined by in silico modeling of docking of a peptide into the sugar binding site of the crystal structures of lectins. These studies predicted that several short peptide sequences, 5 to 8 amino acids in length, would have significant affinity to lectins chosen as analogs of cell-surface receptors. […] MAA is a mixture of M. amurensis leukoagglutinin (MAL) and M. amurensis hemagglutinin (MAH), both of which along with SNA1 bind preferentially to terminal Neu5Ac-Gal- sequences on complex glycans. Binding of the peptide to several lectins specific for monosaccharides was not detected. We then assayed binding of svH1C to several siglecs, which comprise a family of cell-surface receptors that are specific for Neu5Ac-Gal/GalNAc- sequ ...

[4] = test system: lectins specific for di- or tri-saccharides that terminate with Neu5Ac-Gal; conditions: ref [29],[30]; cited from earlier work
Text: We initially identified several sequences of amino acids that bound to specific plant lectins by screening phage display libraries. Sequences were further refined by in silico modeling of docking of a peptide into the sugar binding site of the crystal structures of lectins. These studies predicted that several short peptide sequences, 5 to 8 amino acids in length, would have significant affinity to lectins chosen as analogs of cell-surface receptors. The sequences identified by this approach were incorporated into tetravalent structures, a design based on the concept of avidity as a fun ...

Substance: I: NPSHPLSGGGGSKK-NH2 / II: NPSHPLSGGGGSK / III: NPSHPLSGGGGS / IV: NPSHPLSGGGGS (amide I:13-IV:C, I:14-II:C, II:13-III:C) [svH1C, [(NPSHPLSGGGGS)2K]2K-NH2]
- Kd (NKG2D [1]): ~1000 nM
- Kd (NKG2D [2]; 100 μM svH1C titrated into 10 μM NKG2D (subunit concentration), 50 mM Tris-HCl, pH 7.5, 150 mM NaCl, 0.1 mM EDTA, read-out: KD): 580 nM and 600 nM
- Kd (NKG2D [2]; abstract, range for siglecs and NKG2D together, read-out: KD, NKG2D (abstract range)): 600 to 1000 nM
- toxicity in vivo (toxicity in vivo): non-toxic in vivo

Substance: NPSHPSLG (also: tetravalent, biotinylated) [svH1D]
- binding of biotinylated tetravalent peptides to siglecs (siglecs): also bound to siglecs
- binding to lectins specific for monosaccharides [3]: did not bind
- binding to lectins specific for di- or tri-saccharides that terminate with Neu5Ac-Gal [4]: bound strongly
